Assay results published in patent US12180191B1, “2-[(1H-benzimidazol-2-yl)imino]-5,5-diphenylimidazolidin-4-one as an antimicrobial compound” (KING FAISAL UNIVERSITY, priority 2023, dated 2024).

Assays:
Assay type in all cases: cell-based
Escherichia coli = assay: Agar plate disc-diffusion, antibacterial inhibition zone; conditions: nutrient agar, 37° C., 48 hours
Protocol: (§1) The agar plate disc-diffusion method was applied. […] The discs were then placed onto the surface of agar plates (nutrient agar for bacteria and Sabouraud's dextrose agar for fungi) seeded with the test organism. Each plate contained 15 mL of the agar medium, previously seeded with 0.2 mL of the broth culture of each organism pregrown for 18 hours. The plates were incubated at 37° C. for 48 hours, and 72 hours for fungi. The inhibition zones were measured in millimeter. Discs impregnated with DMSO were used as a control, and its inhibition zone was subtracted from the tested compound actual inhibition zone.
(§2) The results of the antimicrobial testing can be observed in Tables 1 and 2, below, with ciprofloxacin serving as a reference.

Bacillus cereus = assay: as above; conditions: nutrient agar, 37° C., 48 hours
Protocol: as §1, §2

Pseudomonas aeruginosa = assay: as above; conditions: nutrient agar, 37° C., 48 hours
Protocol: as §1, §2

Aspergillus flavus = assay: Agar plate disc-diffusion, antifungal inhibition zone; conditions: Sabouraud's dextrose agar, 72 hours
Protocol: (§3) The agar plate disc-diffusion method was applied. Sterilized filter papers (6 mm in diameter) were wetted with 10 μL of a solution of 2-[(1H-benzimidazol-2-yl)imino]-5,5-diphenylimidazolidin-4-one (3) to be tested, containing 10 mg/mL in DMSO, and the discs were allowed to air dry. The discs were then placed onto the surface of agar plates (nutrient agar for bacteria and Sabouraud's dextrose agar for fungi) seeded with the test organism. Each plate contained 15 mL of the agar medium, previously seeded with 0.2 mL of the broth culture of each organism pregrown for 18 hours. The plates were incubated at 37° C. for 48 hours, and 72 hours for fungi. The inhibition zones were measured in millimeter. Discs impregnated with DMSO were used as a control, and its inhibition zone was subtracted from the tested compound actual inhibition zone.
as §2

Staphylococcus aureus = assay: Agar plate disc-diffusion, antibacterial inhibition zone; conditions: nutrient agar, 37° C., 48 hours
Protocol: as §3, §2

[1] = test system: Chrysosporium keratinophilum; assay: Agar plate disc-diffusion, antifungal inhibition zone; conditions: Sabouraud's dextrose agar, 72 hours
Protocol: as §1, §2

[2] = A = concentration of comp. = 10,000 μL
[3] = B = concentration of comp. = 30.000 μL
[4] = C = concentration of comp. = 50,000 μL

## O=C(O)c1cn(C2CC2)c2cc(N3CCNCC3)c(F)cc2c1=O [Cip., ciprofloxacin]
Escherichia coli; [2]
  inhibition zone, Escherichia coli: 30 millimeter
Escherichia coli; [3]
  inhibition zone, Escherichia coli: 39 millimeter
Escherichia coli; [4]
  inhibition zone, Escherichia coli: 60 millimeter
Bacillus cereus; [2]
  inhibition zone, Bacillus Cereus: 29 millimeter
Bacillus cereus; [3]
  inhibition zone, Bacillus Cereus: 31 millimeter
Bacillus cereus; [4]
  inhibition zone, Bacillus Cereus: 42 millimeter
Pseudomonas aeruginosa; [2]
  inhibition zone, Pseudomonas aeruginosa: 29 millimeter
Pseudomonas aeruginosa; [3]
  inhibition zone, Pseudomonas aeruginosa: 30 millimeter
Pseudomonas aeruginosa; [4]
  inhibition zone, Pseudomonas aeruginosa: 53 millimeter
Aspergillus flavus; [2]
  inhibition zone, Aspergillus flavus: 29 millimeter
Aspergillus flavus; [3]
  inhibition zone, Aspergillus flavus: 30 millimeter
Aspergillus flavus; [4]
  inhibition zone, Aspergillus flavus: 42 millimeter
Staphylococcus aureus; [2]
  inhibition zone, Staphylococcus aureus: 42 millimeter
Staphylococcus aureus; [3]
  inhibition zone, Staphylococcus aureus: 44 millimeter
Staphylococcus aureus; [4]
  inhibition zone, Staphylococcus aureus: 53 millimeter
[1]; [2]
  inhibition zone, Chrysosporium keratinophilum: 29 millimeter
[1]; [3]
  inhibition zone, Chrysosporium keratinophilum: 30 millimeter
[1]; [4]
  inhibition zone, Chrysosporium keratinophilum: 53 millimeter

## O=C1N/C(=N/c2nc3ccccc3[nH]2)NC1(c1ccccc1)c1ccccc1 [Compound 3, 2-[(1H-benzimidazol-2-yl)imino]-5,5-diphenylimidazolidin-4-one]
Escherichia coli; [2]
  inhibition zone, Escherichia coli: 27 millimeter
Escherichia coli; [3]
  inhibition zone, Escherichia coli: 36 millimeter
Escherichia coli; [4]
  inhibition zone, Escherichia coli: 50 millimeter
Bacillus cereus; [2]
  inhibition zone, Bacillus Cereus: 18 millimeter
Bacillus cereus; [3]
  inhibition zone, Bacillus Cereus: 24 millimeter
Bacillus cereus; [4]
  inhibition zone, Bacillus Cereus: 38 millimeter
Pseudomonas aeruginosa; [2]
  inhibition zone, Pseudomonas aeruginosa: 25 millimeter
Pseudomonas aeruginosa; [3]
  inhibition zone, Pseudomonas aeruginosa: 32 millimeter
Pseudomonas aeruginosa; [4]
  inhibition zone, Pseudomonas aeruginosa: 43 millimeter
Aspergillus flavus; [2]
  inhibition zone, Aspergillus flavus: 18 millimeter
Aspergillus flavus; [3]
  inhibition zone, Aspergillus flavus: 23 millimeter
Aspergillus flavus; [4]
  inhibition zone, Aspergillus flavus: 35 millimeter
Staphylococcus aureus; [2]
  inhibition zone, Staphylococcus aureus: 16 millimeter
Staphylococcus aureus; [3]
  inhibition zone, Staphylococcus aureus: 20 millimeter
Staphylococcus aureus; [4]
  inhibition zone, Staphylococcus aureus: 30 millimeter
[1]; [2]
  inhibition zone, Chrysosporium keratinophilum: 24 millimeter
[1]; [3]
  inhibition zone, Chrysosporium keratinophilum: 29 millimeter
[1]; [4]
  inhibition zone, Chrysosporium keratinophilum: 49 millimeter
